In patent US8829014B2, “Thiazole and thiophene analogues, and their use in treating autoimmune diseases and cancers” (Board of Supervisors of Louisiana State University and …, priority 2006, dated 2014):

Assays:
AP-1 = test: PMA-induced AP-1 luciferase expression in HEK cells; type: cell-based; conditions: luciferase in HEK/AP-1 cells, as described in Example 398; for inhibition at 1 µM: AP1, 1 uM
carageenan-induced edema = test: Carrageenan-induced rat paw edema test (anti-inflammatory activity); type: in vivo, Sprague-Dawley rats
Summary of the method: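 Sprague-Dawley rats (male and female, 150-250 g), fasted 18 h, given compound orally at 50 mg/kg in 0.1% sodium CMC (alternatively i.v., s.c. or i.p.). 1% carrageenan injected sub-plantar in right hind paw 1 h later. Paw displacement read again 3 h later; % protection = [(Control−Test)/Control]×100 versus saline control.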

NF-κB = test: TNF-α-induced NF-κB-dependent luciferase expression in HEK cells; type: cell-based; conditions: luciferase in HEK/NF-κB cells, as described in Example 398; for inhibition at 1 µM: Homo sapiens, HEK293, 1 uM, read-out: NFkB inhibition @ 1 uM
[1] = Rattus norvegicus, po, 3 h, rat paw edema, 50 mg/kg, reading 3 hours after carrageenan; [(Control−Test)/Control]×100%; read-out: % Protection P
[2] = rat paw edema, 50 mg/kg, reading 3 hours after carrageenan; [(Control−Test)/Control]×100%
[3] = rat paw edema, 50 mg/kg, reading 3 hours after carrageenan; [(Control−Test)/Control]×100%; 50 mg/kg

| Compound | inhibition at 1 µM (AP-1) [%] | inhibition in vivo at 50 mg/kg (carageenan-induced edema; [1]) [%] | inhibition at 1 µM (NF-κB) [%] | AP-1 inhibition @ 1 uM (AP-1) | % Protection P (carageenan-induced edema; [2]) [%] | NFkB inhibition @ 1 uM (NF-κB) | % Protection P (carageenan-induced edema; [3]) [%] |
| --- | --- | --- | --- | --- | --- | --- | --- |
| Cc1nc(Nc2ccc(Cl)cc2)sc1C(=O)c1sc(Nc2ccc(Cl)cc2)nc1C [Example 120, Bis-[2-(4-Chloro-phenylamino)-4-methyl-thiazole-5-yl]-methanone] | 76.2 | 64.6 | 20.3 | – | – | – | – |
| O=c1c2ccccc2nc(-c2cc(-c3ccccc3)c(N3CCOCC3)s2)n1-c1ccc(Cl)cc1 [Example 309, 3-(4-Chloro-phenyl)-2-(5-morpholin-4-yl-4-phenyl-thiophen-2-yl)-3H-quinazolin-4-one] | 2 | 66 | 0 | – | – | – | – |
| N-{4-[4-(4-Chloro-phenyl)-5-morpholin-4-yl-thiophen-2-carbonyl]-phenyl}acetamide [Example 85] | – | – | – | 22.58 | 20 | −17.34 | – |
| CSc1ccc(C(=O)c2cc(-c3ccc(NC(C)=O)cc3)c(N3CCOCC3)s2)cc1 [Example 71, N-{4-[5-(4-Methansulfanyl-benzoyl)-2-morpholin-4-yl-thiophene-3-yl]-phenyl}-acetamide] | – | – | – | 27.75 | 2.5 | 7.6 | – |
| Bis-[4-(4-chloro-phenyl)-5-morpholin-4-yl-thiophen-2-yl]-methanone [Example 114] | – | – | – | −70.59 | 30.55 | −39.23 | – |
| COc1ccc(Nc2nc(N)c(-c3nccc(OCC(F)(F)F)c3C)s2)cc1 [Example 353, (N2-(4-Methoxy-phenyl)-5-[3-Methyl-4-(2,2,2-trifluoro-ethoxy)-pyridin-2-yl]-thiazole-2,4-diamine)] | 62 | 82.5 | 59.1 | – | – | – | – |
| COc1ccccc1-n1c(-c2cc(-c3ccc(S(C)(=O)=O)cc3)c(N3CCOCC3)s2)nc2ccccc2c1=O [Example 297, 2-[4-(4-Methanesulphonyl-phenyl)-5-morpholin-4-yl-thiophen-2-yl]-3-(2-methoxy-phenyl)-3H-quinazolin-4-one] | 33 | 63 | 55 | – | – | – | – |
| CS(=O)(=O)c1ccc(-c2cc(-c3nc4ccccc4c(=O)n3-c3ccccc3)sc2N2CCOCC2)cc1 [Example 275, 2-[4-(4-Methanesulfonyl-phenyl)-5-morpholin-4-yl-thiophen-2-yl]-3-phenyl-3H-quinazolin-4-one] | 28 | 25 | 9 | – | – | – | – |
| COc1ccc(C(=O)c2sc(Nc3ccccc3)nc2NC(=O)Nc2ccc(F)cc2)cc1 [Example 117, 1-(4-Fluoro-phenyl)-3-[5-(4-methoxy-benzoyl)-2-phenylamino-thiazol-4-yl]-urea] | 51 | – | 22.1 | – | – | – | 58.62 |
| Dimethyl[carbonyl-bis(4-phenyl-1,3-thiazole-5,2-diyl)]biscarbamate [Example 130] | – | – | – | 9.2 | 40.78 | 12.78 | – |
| CCOC(=O)Nc1nc(C)c(C(=O)c2sc(NC(=O)OCC)nc2C)s1 [Example 124, Diethyl[carbonyl-bis(4-methyl-1,3-thiazole-5,2-diyl)]biscarbamate] | 71.6 | 65.7 | 20.1 | – | – | – | – |
| CC(=O)Nc1ccc(-c2cc(-c3nc4ccccc4c(=O)n3-c3ccc(Cl)cc3)sc2N2CCOCC2)cc1 [Example 311] | – | – | – | 17 | 28 | 0 | – |
| COc1ccc(C(=O)c2cc(-c3ccc(S(C)(=O)=O)cc3)c(N3CCOCC3)s2)cc1 [Example 56, [4-(4-Methanesulfonyl-phenyl)-5-morpholin-4-yl-thiophene-2-yl]-(4-methoxy-phenyl)-methanone] | 76.1 | 77.8 | 18.1 | – | – | – | – |
| Cc1ccc(C(=O)c2cc(-c3cccnc3)c(N3CCOCC3)s2)cc1 [Example 91, (5-Morpholin-4-yl-4-pyridin-3-yl-thiophene-2-yl)-p-tolyl-methanone] | 49 | 25.3 | 1.28 | – | – | – | – |
| Nc1nc(Nc2ccc(Cl)cc2)sc1C(=O)c1cccnc1 [Example 338, (4-Amino-2-(4-chlorophenylamino)-thiazol-5-yl)-pyridin-3-yl-methanone] | -89.1 | 25.8 | -84.1 | – | – | – | – |
| CSc1ccc(C(=O)c2cc(-c3cccnc3)c(N3CCOCC3)s2)cc1 [Example 95, (4-Methylsulfanyl-phenyl)-(5-morpholin-4-yl-4-pyridin-3-yl-thiophen-2-yl)-methanone] | – | – | – | 64.02 | – | 11.24 | 42.44 |
| COc1c(C)cnc(-c2sc(N3CCN(C(=O)c4ccco4)CC3)nc2-c2ccccc2)c1C [Example 388, Furan-2-yl-{4-[5-(4-methoxy-3,5-dimethyl-pyridin-2-yl)-4-phenyl-thiazol-2-yl]-piperazin-1-yl}-methanone] | 52.1 | 73.4 | 7.64 | – | – | – | – |
| 2-[4-(4-Methylsulfanyl-phenyl)-5-morpholin-4-yl-thiophen-2-yl]-3-phenyl-3H-quinazolin-4-one [Example 276] | – | – | – | −17 | 49 | −10 | – |
| O=c1c2ccccc2nc(-c2cc(-c3ccncc3)c(N3CCOCC3)s2)n1-c1ccccc1Cl [Example 308, 3-(2-Chloro-phenyl)-2-(5-morpholin-4-yl-4-pyridin-4-yl-thiophen-2-yl)-3H-quinazolin-4-one] | 35 | 43 | 80 | – | – | – | – |
| CS(=O)(=O)c1ccc(C(=O)c2sc(N3CCN(C(=O)c4ccco4)CC3)nc2-c2ccco2)cc1 [Example 375, {2-[4-(Furan-2-carbonyl)-piperazin-1-yl]-4-furan-2-yl-thiazol-5-yl}-(4-methanesulfonyl-phenyl)-methanone] | 22.1 | 49 | -13.2 | – | – | – | – |
| COc1ccc(Nc2nc(N)c(C(=O)c3cccnc3)s2)cc1 [Example 349, ([4-Amino-2-(4-methoxy-phenylamino)-thiazol-5-yl]-pyridin-3-yl-methanone)] | 51.5 | 18.2 | -35.9 | – | – | – | – |
| CS(=O)(=O)c1ccc(C(=O)c2cc(-c3cccnc3)c(N3CCOCC3)s2)cc1 [Example 96, (4-Methylsulfonyl-phenyl)-(5-morpholin-4-yl-4-pyridin-3-yl-thiophen-2-yl)-methanone] | 37.7 | 46.8 | -12.9 | – | – | – | – |
| O=c1c2ccccc2nc(-c2cc(-c3ccccc3)c(N3CCOCC3)s2)n1-c1ccccc1 [Example 272, 2-(5-Morpholin-4-yl-4-phenyl-thiophene-2-yl)-3-phenyl-3H-quinazolin-4-one] | 11 | 30 | -2 | – | – | – | – |
| O=C(c1ccccn1)c1sc(N2CCN(C(=O)c3ccco3)CC2)nc1-c1ccccc1 [Example 390, {2-[4-(Furan-2-carbonyl)-piperazin-1-yl]-4-phenyl-thiazol-5-yl}-pyridin-2-yl-methanone] | 40.9 | 17 | 0.47 | – | – | – | – |
